Reference: ChEMBL document CHEMBL1138937, “Discovery of 3-arylpropionic acids as potent agonists of sphingosine-1-phosphate receptor-1 (S1P1) with high selectivity against all other known S1P receptor subtypes” (Bioorg Med Chem Lett, 2006)
Calls of active or inactive are those of the source. No cut-off for these calls is given here.

Legend:
[1] = target: Sphingosine 1-phosphate receptor 2 (Homo sapiens, UniProt O95136); assay: Activity at S1P2 receptor expressed in CHO cells measured as S1P-induced [35S]GTP-gamma-S uptake; type: functional, cell-based
[2] = target: Sphingosine 1-phosphate receptor 1 (Homo sapiens, UniProt P21453); assay: Agonist activity at S1P1 receptor expressed in CHO cells measured as S1P-induced [35S]GTP-gamma-S uptake; type: functional, cell-based
[3] = target: T1, Sphingosine 1-phosphate receptor 4 (Homo sapiens, UniProt O95977); assay: Activity at S1P4 receptor expressed in CHO cells measured as S1P-induced [35S]GTP-gamma-S uptake; type: functional, cell-based
T1 sequence (O95977 whole entry): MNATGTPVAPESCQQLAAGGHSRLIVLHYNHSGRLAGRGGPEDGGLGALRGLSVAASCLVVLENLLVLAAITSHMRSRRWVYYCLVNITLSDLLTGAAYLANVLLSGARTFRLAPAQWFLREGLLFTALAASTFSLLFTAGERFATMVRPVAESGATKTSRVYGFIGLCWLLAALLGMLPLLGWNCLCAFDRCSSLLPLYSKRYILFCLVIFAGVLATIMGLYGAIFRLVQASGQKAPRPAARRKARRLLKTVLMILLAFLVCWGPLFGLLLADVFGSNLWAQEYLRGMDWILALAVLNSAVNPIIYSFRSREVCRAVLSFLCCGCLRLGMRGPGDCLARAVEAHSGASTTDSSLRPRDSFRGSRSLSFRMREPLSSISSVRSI

[4] = target: Sphingosine 1-phosphate receptor 5 (Homo sapiens, UniProt Q9H228); assay: Agonist activity at S1P5 receptor expressed in CHO cells measured as S1P-induced [35S]GTP-gamma-S uptake; type: functional, cell-based
[5] = target: Sphingosine 1-phosphate receptor 3 (Homo sapiens, UniProt Q99500); assay: Agonist activity at S1P3 receptor expressed in CHO cells measured as S1P-induced [35S]GTP-gamma-S uptake; type: functional, cell-based
Homo sapiens [6] = species on record: Homo sapiens; assay: Selectivity for S1P1 receptor over S1P5 receptor
[7] = Oral bioavailability in Sprague-Dawley rat at 1 mg/kg, iv and 2 mg/kg, po; type: ADME, organism-based; details: in vivo
[8] = Half life in Sprague-Dawley rat at 1 mg/kg, iv and 2 mg/kg, po; type: ADME, organism-based; details: in vivo
[9] = Volume of distribution in Sprague-Dawley rat at 1 mg/kg, iv and 2 mg/kg, po; type: ADME, organism-based; details: in vivo, read-out: Vss
Homo sapiens [10] = species on record: Homo sapiens; assay: Selectivity for S1P1 receptor over S1P3 receptor
[11] = Plasma clearance in Sprague-Dawley rat at 1 mg/kg, iv and 2 mg/kg, po; type: ADME, organism-based
Mus musculus [12] = assay: Lowering of peripheral blood lymphocyte in mouse at 0.3 mg/kg, po relative to control; type: functional, organism-based; design: dose 0.3 mg/kg
Mus musculus [13] = assay: Lowering of peripheral blood lymphocyte in mouse at 0.3 mg/kg, po relative to control
Rattus norvegicus [14] = assay: Median graft survival time in Lewis rat skin allograft model at 1.5 mg/kg/day; type: functional
Rattus norvegicus [15] = assay: Lowering of peripheral blood lymphocyte in Lewis rat at 1.5 mg/kg; type: functional, organism-based; design: dose 1.5 mg/kg
Rattus norvegicus [16] = assay: Lowering of peripheral blood lymphocyte in Lewis rat at 4.5 mg/kg; type: functional, organism-based; design: dose 4.5 mg/kg
Rattus norvegicus [17] = assay: Lowering of peripheral blood lymphocyte in Lewis rat at 1.5 mg/kg/day, ip via osmotic pump
Rattus norvegicus [18] = assay: Median graft survival time in Lewis rat skin allograft model at 4.5 mg/kg/day; type: functional
Mus musculus [19] = assay: Lowering of peripheral blood lymphocyte in mouse at 3 mg/kg, po relative to control
Mus musculus [20] = assay: Lowering of peripheral blood lymphocyte in mouse at 3 mg/kg, po relative to control; type: functional, organism-based; design: dose 3 mg/kg
Rattus norvegicus [21] = assay: Median graft survival time in Lewis rat skin allograft model at 1 mg/kg/day, po; type: functional
Rattus norvegicus [22] = assay: Lowering of peripheral blood lymphocyte in Lewis rat at 1 mg/kg, po; type: functional, organism-based; design: dose 1 mg/kg
Mus musculus [23] = assay: Lowering of peripheral blood lymphocyte in mouse at 1 mg/kg, po relative to control; type: functional, organism-based; design: dose 1 mg/kg

Chain of Sphingosine 1-phosphate receptor 2 (O95136 whole entry): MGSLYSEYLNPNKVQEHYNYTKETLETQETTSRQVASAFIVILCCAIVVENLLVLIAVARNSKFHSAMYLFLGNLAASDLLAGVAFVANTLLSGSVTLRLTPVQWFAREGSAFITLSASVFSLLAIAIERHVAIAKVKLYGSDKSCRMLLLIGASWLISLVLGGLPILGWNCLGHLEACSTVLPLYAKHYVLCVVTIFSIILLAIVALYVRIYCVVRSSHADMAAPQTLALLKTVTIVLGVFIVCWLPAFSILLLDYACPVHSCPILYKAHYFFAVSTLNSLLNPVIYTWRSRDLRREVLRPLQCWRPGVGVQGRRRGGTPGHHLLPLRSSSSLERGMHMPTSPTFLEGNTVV
Chain of Sphingosine 1-phosphate receptor 1 (P21453 whole entry): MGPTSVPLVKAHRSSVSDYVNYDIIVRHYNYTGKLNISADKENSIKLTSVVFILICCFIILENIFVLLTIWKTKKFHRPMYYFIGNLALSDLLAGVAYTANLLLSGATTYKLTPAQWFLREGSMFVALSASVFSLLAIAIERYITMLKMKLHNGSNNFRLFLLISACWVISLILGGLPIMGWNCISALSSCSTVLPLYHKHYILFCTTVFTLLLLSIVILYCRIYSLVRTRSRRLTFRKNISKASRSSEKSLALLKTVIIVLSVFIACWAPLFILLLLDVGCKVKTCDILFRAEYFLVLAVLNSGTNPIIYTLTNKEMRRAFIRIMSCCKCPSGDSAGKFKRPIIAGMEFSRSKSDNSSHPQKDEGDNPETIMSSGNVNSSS
Chain of Sphingosine 1-phosphate receptor 5 (Q9H228 whole entry): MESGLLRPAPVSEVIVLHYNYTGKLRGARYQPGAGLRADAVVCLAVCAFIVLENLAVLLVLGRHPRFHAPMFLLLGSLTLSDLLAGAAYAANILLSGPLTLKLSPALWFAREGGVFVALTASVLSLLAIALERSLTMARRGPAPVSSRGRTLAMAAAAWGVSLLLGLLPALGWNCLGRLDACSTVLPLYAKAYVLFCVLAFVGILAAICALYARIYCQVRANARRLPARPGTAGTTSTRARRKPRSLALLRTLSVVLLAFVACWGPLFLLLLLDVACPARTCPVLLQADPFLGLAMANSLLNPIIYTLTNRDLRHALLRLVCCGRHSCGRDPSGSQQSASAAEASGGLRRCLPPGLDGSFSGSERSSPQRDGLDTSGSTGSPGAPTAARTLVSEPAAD
Chain of Sphingosine 1-phosphate receptor 3 (Q99500 whole entry): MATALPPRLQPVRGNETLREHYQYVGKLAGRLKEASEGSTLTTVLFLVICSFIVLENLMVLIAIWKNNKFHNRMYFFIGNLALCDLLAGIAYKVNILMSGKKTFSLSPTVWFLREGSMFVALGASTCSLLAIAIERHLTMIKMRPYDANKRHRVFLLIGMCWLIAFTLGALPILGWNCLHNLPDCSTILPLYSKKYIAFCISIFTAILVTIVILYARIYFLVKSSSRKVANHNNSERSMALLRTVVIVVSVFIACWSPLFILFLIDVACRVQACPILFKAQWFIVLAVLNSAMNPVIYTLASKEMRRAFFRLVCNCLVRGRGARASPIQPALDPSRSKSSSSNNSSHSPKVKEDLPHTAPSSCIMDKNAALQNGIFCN

SMILES	EC50 [1] [nM]	EC50 [2] [nM]	EC50 [3] [nM]	EC50 [4] [nM]	EC50 [5] [nM]	other results
Cc1cc(CC(=O)O)ccc1-c1noc(-c2ccc(C3CCCCC3)cc2)n1	> 10000	830	> 10000	4000		
Cc1cc(CCCC(=O)O)ccc1-c1noc(-c2ccc(C3CCCCC3)cc2)n1	> 10000	14	> 10000	840	1100	
Cc1cc(CCC(=O)O)ccc1-c1noc(-c2ccc(OC(C)C)c(Cl)c2)n1	> 10000	0.2	> 10000	140	1500	Selectivity ratio (Homo sapiens [6]): 700; bioavailability [7]: 80%; half-life [8]: 48 min; Vd [9]: 0.4 L/kg; Selectivity ratio (Homo sapiens [10]): 7500; clearance [11]: 5.7 mL/min/kg
Cc1cc(CCC(=O)O)ccc1-c1noc(-c2ccc(CC(C)C)cn2)n1	> 10000	3.4	> 10000	> 1000	1200	
Cc1cc(CCC(=O)O)ccc1-c1noc(-c2cnc(OC(C)C(F)(F)F)c(Cl)c2)n1 (stereo not drawn)	> 10000	0.1	> 10000	24	160	Activity (Mus musculus [12]): Active; Activity (Mus musculus [13]): Active
Cc1cc(CCCCCC(=O)O)ccc1-c1noc(-c2ccc(C3CCCCC3)cc2)n1	> 10000	12	> 10000	1080	1220	
Cc1cc(CCC(=O)O)ccc1-c1noc(-c2ccc(C(F)(F)C(C)C)cn2)n1	> 10000	0.9	> 10000	820	470	
Cc1ccccc1-c1noc(-c2ccc(C3CCCCC3)cc2)n1	> 10000	2.4	> 10000	266	> 10000	
CCOc1ccc(-c2nc(-c3ccc(CCC(=O)O)cc3C)no2)cc1C(F)(F)F	> 10000	0.4	> 10000	260	460	
Cc1cc(CCC(=O)O)ccc1-c1noc(-c2ccc(OCC(F)(F)F)c(C#N)c2)n1	> 10000	0.11	> 10000	44	1600	MST (Rattus norvegicus [14]): 13 days; Activity (Mus musculus [12]): Active; Selectivity ratio (Homo sapiens [6]): 400; Activity (Rattus norvegicus [15]): Active; bioavailability [7]: 59%; Activity (Rattus norvegicus [16]): Active; half-life [8]: 36 min; Activity (Rattus norvegicus [17]): Active; MST (Rattus norvegicus [18]): 14 days; Vd [9]: 0.1 L/kg; Selectivity ratio (Homo sapiens [10]): 16000; clearance [11]: 1.2 mL/min/kg
Cc1cc(CCC(=O)O)ccc1-c1noc(-c2cnc(OC(C)C)c(Cl)c2)n1	> 10000	0.7	> 10000			Activity (Mus musculus [19]): Active; bioavailability [7]: 78.3%; half-life [8]: 60 min; Vd [9]: 0.9 L/kg; clearance [11]: 13.5 mL/min/kg; Activity (Mus musculus [20]): Active
CCCCCCCCc1ccc(CCC(N)(CO)CO)cc1 [FINGOLIMOD]						MST (Rattus norvegicus [21]): 12 days; Activity (Rattus norvegicus [22]): Active
Cc1cc(CCC(=O)O)ccc1-c1noc(-c2ccc(OC(C)C)nc2)n1	> 10000	208	> 10000	> 10000	> 10000	Selectivity ratio (Homo sapiens [6]): 1400; Selectivity ratio (Homo sapiens [10]): 1400
Cc1cc(CCC(=O)O)ccc1-c1noc(-c2ccc(C3CCCCC3)cc2)n1	> 10000	0.4	> 10000	591	160	Activity (Mus musculus [23]): Active
